Patent US20240174690A1, “ANNULATED 2-AMINO-3-CYANO THIOPHENES AND DERIVATIVES FOR THE TREATMENT OF CANCER” (BOEHRINGER INGELHEIM INTERNATIONAL GMBH, priority 2021, published 2024)

Tests used:
SK-CO-1 cells = assay: SK-CO-1 CTG proliferation assay (120 h) (CRC, G12V); format: cell-based; conditions: Homo sapiens; SK-CO-1 cells (CRC, G12V), CTG 120 h
Protocol: SK-CO-1 CTG Proliferation Assay (120 h) (CRC, G12V)
(§1) SK-CO-1 cells (ATCC HTB-39) are dispensed into 384-well plates, flat and clear bottom (Greiner, PNr. 781091) at a density of 500 cells per well in 60 μL EMEM (Sigma M5650)+10% Fetal Calf Serum (HyClone, PNr.: SH30084.03) and incubated at 37° C. in a CO2 incubator overnight. The next day, compounds (10 mM stock in DMSO) are added with the ECHO acoustic liquid handler system (Beckman Coulter), including DMSO controls. Plates are incubated for 120 h, and cell viability is measured using CellTiter-Glo luminescent cell viability reagent (Promega product code G7570). Viability (stated as percent of control) is defined as relative luminescence units RLU of each well divided by the RLU of cells in DMSO controls. IC50 values are determined from viability measurements by non-linear regression using a four-parameter model.

NCI-H2122 cells = assay: NCI-H2122 CTG proliferation assay (120 h) (NSCLC, G12C); format: cell-based; conditions: Homo sapiens
Protocol: NCI-H2122 CTG Proliferation Assay (120 h) (NSCLC, G12C)
The CTG assay is designed to measure quantitatively the proliferation of NCI-H2122 cells (ATCC CRL-5985), using the CellTiter Glow Assay Kit (Promega G7571). Cells are grown in RPMI medium (ATCC) supplemented with Fetal Calf Serum (Life Technologies, Gibco BRL, Cat. No. 10270-106). On “day 0” 200 NCI-H2122 cells are seeded in 60 μL RPMI ATCC+10% FCS+Penstrep in a black 384-well plate, flat and clear bottom (Greiner, PNr. 781091). Cells are then incubated in the plates at 37° C. in a CO2 incubator overnight. On day 1, compounds (10 mM stock in DMSO) are added with the ECHO acoustic liquid handler system (Beckman Coulter), including DMSO controls. Plates are incubated for 120 h, and cell viability is measured using CellTiter-Glo luminescent cell viability reagent (Promega product code G7570). Viability (stated as percent of control) is defined as relative luminescence units RLU of each well divided by the RLU of cells in DMSO controls. IC50 values are determined from viability measurements by non-linear regression using a four parameter model.

SAS cells = assay: SAS CTG proliferation assay (120 h) (HNSCC, wt amplified); format: cell-based
Protocol: SAS CTG Proliferation Assay (120 h) (HNSCC, Wt Amplified)
as §1, with “SAS” for “SK-CO-1”, “(JCRB0260)” for “(ATCC HTB-39)”, “300” for “500”, “DMEM:F12 (Gibco 31330-038)+10%” for “EMEM (Sigma M5650)+10%”

[1] = Caco-2 assay (permeability PappAB, PappBA, efflux ratio); format: in vitro ADME; conditions: human, Caco-2, 10 μM test compound, pH 7.4; for efflux ratio at 90 min, 10 μM: efflux ratio PappBA/PappAB, read-out: Caco ER; for Papp A→B at 90 min, 10 μM: apical to basolateral
Description: The assay provides information on the potential of a compound to pass the cell membrane, on the extent of oral absorption as well as on whether the compound is actively transported by uptake and/or efflux transporters. Permeability measurements across polarized, confluent Caco-2 cell monolayers grown on permeable filter supports (Corning, catalog #3391) are used. […] The receiver and donor compartments contain 0.25% bovine serum albumine (BSA) in assay buffer. Passive diffusion and/or active transport of compounds across the monolayer is measured in both apical to basolateral (a-b) and basolateral to apical (b-a) direction. a-b permeability (PappAB) represents drug absorption from the intestine into the blood and b-a permeability (PappBA) drug secretion from the blood back into the intestine via both passive permeability as well as active transport mechanisms mediated by efflux and uptake transporters that are expressed on the Caco-2 cells. After a pre-incubation of 25-30 min at 37° C., at predefined time points (0, 30, 60 and 90 min), samples were taken from the receiver and donor compartment, respectively. Concentrations of test compounds in samples were measured by HPLC/MS/MS, samples from the donor compartment were diluted 1:50 (v:v) with assay buffer, samples from receiver compartment were measured without dilution.
Apparent permeabilities in a-b (PappAB) and b-a (PappBA) directions are calculated according to the formula:
[formula] • Vrec [mL]: buffer volume in receiver compartment • Cdon [μmol/mL]: concentration of test compound in donor compartment at t=0 • ΔCrec: difference between concentrations of test compound in receiver compartment at start and end of incubation time • Δt: Incubation time • Vrec·ΔCrec/Δt [μmol/min]: Amount of compound transferred to receiver compartment per time • A [cm^2]: filter surface
Caco-2 efflux ratios (ER) are calculated as the ratio of PappBA/PappAB.

Row | IC50 (SK-CO-1 cells) [µM] | IC50 (NCI-H2122 cells) [µM] | efflux ratio at 90 min, 10 μM [1] | Papp A→B at 90 min, 10 μM [1] [×10⁻⁶ cm/s] | SMILES | IC50 (SAS cells) [µM]
1 | 0.126 | 0.953 | 0.5 | – | C[C@H](Oc1cc(-n2ccc(Br)n2)nc(-c2noc3c2CCC[C@@]32CCCc3sc(N)c(C#N)c32)n1)[C@@H]1CCCN1C [II-110] | 0.068
2 | 0.464 | 1.77 | – | < 1.1 | C[C@H](Oc1cc(N2CCNC3(CC3)C2)nc(-c2noc3c2CCC[C@@]32CCCc3sc(N)c(C#N)c32)n1)[C@@H]1CCCN1C [II-54] | 0.234
3 | 0.28 | 4.79 | 0.3 | 19 | CO[C@@H]1C[C@@H]([C@H](C)Oc2cc(-c3cnn(C)n3)nc(-c3noc4c3CCC[C@@]43CCCc4sc(N)c(C#N)c43)n2)N(C)C1 [II-62] | 0.05
4 | 0.051 | 0.858 | 1.5 | – | C[C@H](Oc1cc(-c2cnsc2)nc(-c2noc3c2CCC[C@@]32CCCc3sc(N)c(C#N)c32)n1)[C@@H]1CCCN1C [II-111] | 0.057
5 | 0.491 | 2.86 | 1.1 | 15 | Cc1cn(-c2cc(O[C@@H](C)[C@@H]3CCCN3C)nc(-c3noc4c3CCC[C@@]43CCCc4sc(N)c(C#N)c43)n2)nn1 [II-106] | 0.096
6 | 0.051 | 1.12 | 1.2 | – | C[C@H](Oc1cc(-c2ccccn2)nc(-c2noc3c2CCC[C@@]32CCCc3sc(N)c(C#N)c32)n1)[C@@H]1CCCN1C [II-85] | 0.026
7 | 0.028 | 0.891 | 1.4 | 17 | C[C@H](Oc1cc(-n2cncn2)nc(-c2noc3c2CCC[C@@]32CCCc3sc(N)c(C#N)c32)n1)[C@@H]1CCCN1C [II-70] | 0.041
8 | 0.802 | 2.68 | 111 | 0.3 | C[C@H](Oc1cc(N2CCNC[C@]23CCOC3)nc(-c2noc3c2CCC[C@@]32CCCc3sc(N)c(C#N)c32)n1)[C@@H]1CCCN1C [II-50] | 0.041
9 | 0.181 | 5.72 | 2.4 | 10 | CO[C@@H]1C[C@@H]([C@H](C)Oc2cc(-c3ccn(C4COC4)n3)nc(-c3noc4c3CCC[C@@]43CCCc4sc(N)c(C#N)c43)n2)N(C)C1 [II-107] | 0.007
10 | 0.554 | 3.19 | 2.3 | 7.5 | C[C@H](Oc1cc(N2C[C@H](C)N[C@@H](C)C2)nc(-c2noc3c2CCC[C@@]32CCCc3sc(N)c(C#N)c32)n1)[C@@H]1CCCN1C [II-56] | 1.43
11 | 0.121 | 2.08 | 0.8 | 12 | C[C@H](Oc1cc(-c2cnn(C)n2)nc(-c2noc3c2CCC[C@@]32CCCc3sc(N)c(C#N)c32)n1)[C@@H]1CCCN1C [II-86] | 0.502
12 | 0.078 | 1.09 | 1.6 | 9 | CO[C@@H]1C[C@@H]([C@H](C)Oc2cc(-c3ccn(C)n3)nc(-c3noc4c3CCC[C@@]43CCCc4sc(N)c(C#N)c43)n2)N(C)C1 [II-91] | 0.07
13 | 2.08 | 3.38 | 15 | 2.9 | C[C@H](Oc1cc(N2C[C@H](C)N[C@@H](C)C2)nc(-c2onc3c2CCC[C@@]32CCCc3sc(N)c(C#N)c32)n1)[C@@H]1CCCN1C [I-6] | 3.44
14 | 0.019 | 0.834 | 2.1 | 13 | C[C@H](Oc1cc([C@@H]2CCOC2)nc(-c2noc3c2CCC[C@@]32CCCc3sc(N)c(C#N)c32)n1)[C@@H]1CCCN1C [II-94] | 0.082
15 | 0.076 | 5.01 | – | < 2.9 | C[C@H](Oc1cc(N2CC[C@@H](O)C2)nc(-c2noc3c2CCC[C@@]32CCCc3sc(N)c(C#N)c32)n1)[C@@H]1CCCN1C [II-66] | 0.06
16 | 0.071 | 1.99 | – | < 1.7 | C[C@H](Oc1cc(-c2cn[nH]c2)nc(-c2noc3c2CCC[C@@]32CCCc3sc(N)c(C#N)c32)n1)[C@@H]1CCCN1C [II-87] | 0.107
17 | 0.067 | 1.35 | 37.2 | 0.9 | C[C@H](Oc1cc(N2CCC[C@@H](O)C2)nc(-c2noc3c2CCC[C@@]32CCCc3sc(N)c(C#N)c32)n1)[C@@H]1CCCN1C [II-59] | 0.031
18 | 0.17 | 2.68 | 9.2 | 2.5 | C[C@H](Oc1cc(-c2cncnc2)nc(-c2noc3c2CCC[C@@]32CCCc3sc(N)c(C#N)c32)n1)[C@@H]1CCCN1C [II-82] | 0.99
19 | 0.052 | 0.961 | 3.2 | 7.9 | CNC(=O)c1cn(-c2cc(O[C@@H](C)[C@@H]3CCCN3C)nc(-c3noc4c3CCC[C@@]43CCCc4sc(N)c(C#N)c43)n2)nn1 [II-122] | 0.889
20 | 0.032 | 1.68 | 23 | 2 | CC(=O)N1CC=C(c2cc(O[C@@H](C)[C@@H]3CCCN3C)nc(-c3noc4c3CCC[C@@]43CCCc4sc(N)c(C#N)c43)n2)CC1 [II-81] | 0.051
21 | 0.257 | 1.52 | 7 | 2 | C[C@H](Oc1cc(-c2ccc(N)nc2)nc(-c2noc3c2CCC[C@@]32CCCc3sc(N)c(C#N)c32)n1)[C@@H]1CCCN1C [II-101] | 0.13
22 | 0.064 | 0.661 | 30.9 | 1.1 | C[C@H](Oc1cc(-n2cc(Cn3ccnc3)nn2)nc(-c2noc3c2CCC[C@@]32CCCc3sc(N)c(C#N)c32)n1)[C@@H]1CCCN1C [II-113] | 0.381
23 | 0.106 | 0.441 | 7.4 | 3.5 | C[C@H](Oc1cc(-c2ccn(C3COC3)n2)nc(-c2noc3c2CCC[C@@]32CCCc3sc(N)c(C#N)c32)n1)[C@@H]1CCCN1C [II-109] | 0.02
24 | 0.12 | 1.3 | 3.7 | 6.5 | C[C@H](Oc1cc(C2CCOCC2)nc(-c2noc3c2CCC[C@@]32CCCc3sc(N)c(C#N)c32)n1)[C@@H]1CCCN1C [II-76] | 0.066
